Data published in US20200345637A1, “SUSPENSION COMPOSITIONS OF MULTI-TARGET INHIBITORS” (AIVIVA BIOPHARMA, INC., priority 2018, published 2020).
In brackets after ≈: the same amount, converted by molar mass. Several values for one entry are separate records, joined by “and”; a condition that tells them apart may be missing. Equal entries are not always repeated. Where two headings read alike, the source gives them in different places.

Assays:
[1] = system: choroid neovascularization lesions; experiment: Laser-induced choroid neovascularization model in rats; assay type: in vivo, Brown Norway rats; settings: intravitreal injection 50 μg/eye; fluorescein angiography Day 22
Description: The tolerability, efficacy, and ocular distribution were evaluated in a laser-induced choroid neovascularization model in rats. […] In this 22-day study, effects of local administration of the multi-target (i.e., multi-target kinase) inhibitors nintedanib and lenvatinib were examined on the development of new vessels. Vehicle and positive control groups were included in the study. Female Brown Norway rats were divided into 7 separate treatment groups. On Day 1, laser treatments were performed on all animals using a 520 nm thermal laser to generate a total of three lesions per eye. […] On Day 3, bilateral intravitreal injections of vehicle, 5 μg/eye of rat anti-VEGF antibody, 50 μg/eye of nintedanib, or 50 μg/eye of lenvatinib were performed. On Day 22, fluorescein angiography was performed on all animals, and the lesion sizes/areas were determined using image analysis software (Image J). […] Concentrations of test compounds in ocular tissues and plasma were measured by LCMS-MS after intravitreal or eyedrop administration in rats. […] The eyedrop administration produced higher drug concentrations in the ocular surface, such as conjunctiva, than the intravitreal injection. Three times daily eyedrop administration maintained higher concentrations in plasma than a single intravitreal injection.

[2] = Suspension physical testing: particle size, pH, osmolality, syringeability; assay type: physicochemical; set-up: API Raw Material PSD D50 / Formulated Suspension Particle size distribution D50 / API Raw Material PSD D90 / Formulated Suspension Particle size distribution D90: unit not given here; settings: for Formulated Suspension Syringeability: needle gauge passed
Text: (§1) Examples 1-3 depict the results of physical testing of some subject formulations.

[3] = Terminal sterilization and stability assay of formulated suspension; assay type: physicochemical
Text: as §1

[4] = rabbit, in vivo; for tissue concentrations in the retina and choroid / depot and streaks in vitreous humor by fundus imaging / intravitreal dose remained in the vitreous humor: Dutch Belted
Description: (§2) This study evaluated the tolerability and dispersion of the formulations of nintedanib and lenvatinib over 42 days in the posterior segment of the eyes. A single 50 μL intravitreal administration of the 1% suspension was administered to Dutch Belted rabbits.

[5] = system: linear incision wound sites; experiment: Intradermal injection along linear incision wounds, histological evaluation; assay type: in vivo, minipigs; settings: for granulation tissue formation compared to vehicle treated control wounds / presence of myofibroblasts compared to vehicle treated control wounds: 2% suspension (sorafenib 1% suspension); for SMA staining / dermis fibrin / dermis fibroplasia / dermis provisional matrix / epidermis hyperplasia / inflammation / subcutis fibroplasia / subcutis mixed cell infiltrate: microscopic grade over 29 days
Description: The purpose of this study was to evaluate the suspension formulation when administered via intradermal injection with axitinib, nintedanib, sorafenib, and lenvatinib to the dorsal skin along linear incisions of minipigs.
Four male minipigs were dosed. Animals were dosed once via intradermal injection along the edges of each of 10 wound sites for each animal (5 wounds on each side of the dorsum [perpendicular to the spine], approximately 3 cm in length and 3 cm distance from the spine). Axitinib, nintedanib, lenvatinib, and the vehicle control article were administered via eight 0.1 mL intradermal injections around each respective wound site (one injection/cm on both sides of the wound), for a total volume of 0.8 mL/wound site. Sorafenib was administered via the same method at a volume of 0.2 mL/injection, for a total volume of 1.6 mL/wound site. The vehicle control article was Vehicle for Test Articles axitinib, nintedanib, lenvatinib, and sorafenib.
A generalized measure of inflammation, including inflammatory cell infiltrate, fibrin deposition, fibroplasia, epithelial hyperplasia and areas of tissue necrosis were assessed microscopically. […] For test agent treated wounds, all were graded as slight on Day 4, and there was no consistent difference over time as compared to the control group.

[6] = systemic; literature or US label; cited from earlier work
[7] = Aqueous solubility of multi-target inhibitors; assay type: physicochemical; settings: aqueous (not further specified)
Text: Non-limiting examples of the useful multi-target inhibitors and their physicochemical forms are given in Table 1 with aqueous solubility information.

in vivo [8] = settings: Dutch Belted, rabbit
Description: as §2

[9] = rabbit, in vivo
Description: (§3) This study evaluated the local tolerance of vehicle, axitinib, pirfenidone, sorafenib and lenvatinib and ocular distribution of axitinib, sorafenib and lenvatinib (0.3% w/w) when administered by topical ocular instillation in the eyes of New Zealand white rabbits (n=6 per group). […] On Dosing Day 5, the animals were sacrificed and eyes were enucleated. Ocular and plasma concentrations of select compounds were measured by LC-MS/MS.

in vivo [10] = settings: New Zealand White, rabbit
Description: as §3

in vivo [11] = experiment: in vivo; set-up: species or system New Zealand White rabbits; settings: male, New Zealand White, rabbit
Description: Five to seven male New Zealand White rabbits were used per treatment group. Each eye received a 35 μl eyedrop of vehicle, or respective drugs (0.3%) three times daily for 10 days. After the last dose on Day 11, the animals were sacrificed and eyes were enucleated, and plasma and the ocular tissues were collected. Tissue and plasma concentrations of these compounds were measured by LC-MS/MS.

COC(=O)c1ccc2c(c1)NC(=O)/C2=C(\Nc1ccc(N(C)C(=O)CN2CCN(C)CC2)cc1)c1ccccc1 [Nintedanib]
lesion sizes relative to vehicle-treated eyes [1]: significantly reduced lesion sizes
API Raw Material PSD D50 [2]: D50: 68
API Raw Material PSD D90 [2]: D90: 105
Formulated Suspension Osmolality [2]: 207 mOsm/kg
Formulated Suspension Particle size distribution D50 [2]: D50: 22
Formulated Suspension Particle size distribution D90 [2]: D90: 35
Formulated Suspension pH [2]: 7.6
Formulated Suspension Syringeability [2]: Pass 23G
Assay (% of labeled claim) of Formulated Suspension, Initial ([3]; Autoclave): 96.0 % of labeled claim
Assay (% of labeled claim) of Formulated Suspension, 4 months (40° C./75% RH) ([3]; Gamma irradiation): 90.0 % of labeled claim and 97.9 % of labeled claim
Assay (% of labeled claim) of Formulated Suspension, 6 weeks (40° C./75% RH) ([3]; Gamma irradiation): 98.1 % of labeled claim and 99.7 % of labeled claim
Assay (% of labeled claim) of Formulated Suspension, Initial ([3]; Gamma irradiation): 101.8 % of labeled claim and 103.0 % of labeled claim
tissue concentrations in the retina and choroid [4]: higher than 1 μg/gm
depot and streaks in vitreous humor by fundus imaging ([4]; 42 days): remained present out to Day 42 postdose
intravitreal dose remained in the vitreous humor ([4]; 42 days): 4-7%
Concentrations in conjunctival tissue [4]: mostly under quantitation limit
granulation tissue formation compared to vehicle treated control wounds [5]: delay in granulation tissue formation
presence of myofibroblasts compared to vehicle treated control wounds [5]: prolonged presence of myofibroblasts
SMA staining [5]: none to moderate
dermis fibrin [5]: slight to moderate
dermis fibroplasia [5]: none to slight
dermis provisional matrix [5]: marked
epidermis hyperplasia [5]: minimal to moderate
inflammation [5]: slight to moderate
subcutis fibroplasia [5]: none to moderate
subcutis mixed cell infiltrate [5]: slight to marked
terminal plasma half-life in man [6]: 9.5 h
solubility [7]: 9 µg/mL (≈ 16.7 µM)
concentration at 29 days (in vivo [8]): 0.252 ng/mL
concentration at 42 days (in vivo [8]): 0.348 ng/mL

COc1cc2nccc(Oc3ccc(NC(=O)NC4CC4)c(Cl)c3)c2cc1C(N)=O [Lenvatinib]
concentrations in the choroid and retina [9]: significant concentrations
drug concentrations in anterior tissues of conjunctiva, sclera and cornea [9]: high drug concentrations
concentration at 5 day of dosing (in vivo [10]): 131 ng/mL
lesion sizes relative to positive control, rat anti-VEGF [1]: significantly reduced lesion sizes
lesion sizes relative to vehicle-treated eyes [1]: significantly reduced lesion sizes
API Raw Material PSD D50 [2]: D50: 164
API Raw Material PSD D90 [2]: D90: 346
Formulated Suspension Osmolality [2]: 201 mOsm/kg
Formulated Suspension Particle size distribution D50 [2]: D50: 7
Formulated Suspension Particle size distribution D90 [2]: D90: 25
Formulated Suspension pH [2]: 7.6
Formulated Suspension Syringeability [2]: Pass 27G
concentration at 11 day (after the last dose) (in vivo [11]): 98.5 ng/mL
Assay (% of labeled claim) of Formulated Suspension, Initial ([3]; Autoclave): 99.0 % of labeled claim
Assay (% of labeled claim) of Formulated Suspension, 4 months (40° C./75% RH) ([3]; Gamma irradiation): 99.8 % of labeled claim and 100.2 % of labeled claim
Assay (% of labeled claim) of Formulated Suspension, 6 weeks (40° C./75% RH) ([3]; Gamma irradiation): 99.2 % of labeled claim and 99.8 % of labeled claim
Assay (% of labeled claim) of Formulated Suspension, Initial ([3]; Gamma irradiation): 101.4 % of labeled claim and 102.4 % of labeled claim
tissue concentrations in the retina and choroid [4]: over 1 μg/gm
intravitreal dose remained in the vitreous humor ([4]; 29 days): 9-17%
depot and streaks in vitreous humor by fundus imaging ([4]; 42 days): remained present out to Day 42 postdose
intravitreal dose remained in the vitreous humor ([4]; 42 days): 3-9%
granulation tissue formation compared to vehicle treated control wounds [5]: delay in granulation tissue formation
presence of myofibroblasts compared to vehicle treated control wounds [5]: prolonged presence of myofibroblasts
SMA staining [5]: slight
dermis fibrin [5]: minimal to slight
dermis fibroplasia [5]: minimal to slight
dermis provisional matrix [5]: marked to minimal
epidermis hyperplasia [5]: slight to none
inflammation [5]: slight to marked
subcutis fibroplasia [5]: moderate to minimal
subcutis mixed cell infiltrate [5]: slight to severe
terminal plasma half-life in man [6]: 30 h
solubility [7]: 4 µg/mL (≈ 9.37 µM)
concentration at 29 days (in vivo [8]): 4.94 ng/mL
concentration at 42 days (in vivo [8]): 3.91 ng/mL
